{"source": "patent US12605459B2", "about": "“Protein-drug conjugates comprising camptothecin analogs and methods of use thereof” (priority 2020, dated 2026)", "key": {"[1]": {"system": "SK-BR-3, Calu-3 and NCI-H1975 cells", "experiment": "In vitro cytotoxicity assay, statements pooled over several tested lines (SK-BR-3, Calu-3, NCI-H1975)", "type": "cell-based, human", "settings": "all tested cells; units printed with the values (pM, nM)", "procedure": "(§1) To test the ability of anti-HER2 or anti-STEAP2 antibody drug conjugates (ADCs) of the present disclosure to kill human cell lines, an in vitro cytotoxicity assay was performed. In vitro cytotoxicity of the ADCs, isotype control ADCs, and reference free payloads were evaluated using the CellTiter-Glo 2.0 Assay Kit (Promega, Cat #g9243), in which the quantity of ATP present is used to determine the number of viable cells in culture.\nFor the assay, Calu-3, SK-BR-3, NCI-H1975, C42, or C42/STEAP2 KO (knockout) cells were seeded at 1000 cells/well in poly-D-lysine coated white 96 well Biocoat plates (Corning #356693) in complete growth medium and grown overnight at 37° C. in 5% CO2. Three-fold serial dilutions of anti-HER2 ADCs or isotype control ADCs were prepared in dilution media (Optimem+0.1% BSA) and added to cells at final concentrations ranging from 100 nM to 0.015 nM (concentrations were corrected for the DAR (drug antibody ratio) and dosed based on the effective payload concentration). […] Relative light units (RLUs) were measured on an Envision luminometer (PerkinElmer), and cell viability was expressed as a percentage of the untreated (100% viable) cells. IC50 values were determined using a four-parameter logistic equation over a 10-point dose response curve (GraphPad Prism). The maximum % kill was also determined for each test article as follows: 100—minimum percent viability."}, "C4-2 cells": {"system": "C4-2 cells", "experiment": "In vitro cytotoxicity assay in tumor lines (CellTiter-Glo 2.0), C4-2", "type": "cell-based, human", "procedure": "as §1\n(§2) For the assay, Calu-3, SK-BR-3, NCI-H1975, C42, or C42/STEAP2 KO (knockout) cells were seeded at 1000 cells/well in poly-D-lysine coated white 96 well Biocoat plates (Corning #356693) in complete growth medium and grown overnight at 37° C. in 5% CO2. Three-fold serial dilutions of anti-HER2 ADCs or isotype control ADCs were prepared in dilution media (Optimem+0.1% BSA) and added to cells at final concentrations ranging from 100 nM to 0.015 nM (concentrations were corrected for the DAR (drug antibody ratio) and dosed based on the effective payload concentration). Three-fold serial dilutions of free payloads were prepared in 100% DMSO, transferred to fresh dilution media, and then added to the cells at a final constant DMSO concentration of 0.2% and final payload concentrations ranging from 100 nM to 0.015 nM. The last well in each dilution series (untreated wells) served as blank controls containing only the media (ADCs) or media plus 0.2% DMSO (payloads) and was plotted as a continuation of the 3-fold serial dilution. Six days later, 100 μL of CellTiter glo 2.0 was added to each well, plates were mixed for 2 minutes on an orbital shaker, and plates were incubated at room temperature for 10 minutes. Relative light units (RLUs) were measured on an Envision luminometer (PerkinElmer), and cell viability was expressed as a percentage of the untreated (100% viable) cells. IC50 values were determined using a four-parameter logistic equation over a 10-point dose response curve (GraphPad Prism). The maximum % kill was also determined for each test article as follows: 100—minimum percent viability."}, "SK-BR-3 cells": {"system": "SK-BR-3 cells", "type": "cell-based, human", "settings": "six days; for IC50: concentrations corrected for DAR", "procedure": "as §1, §2"}, "Calu-3 cells": {"system": "Calu-3 cells", "type": "cell-based, human", "settings": "Table 27 (second experiment), six days", "procedure": "as §1, §2"}, "C4-2/STEAP2 KO cells": {"system": "C4-2/STEAP2 KO cells", "experiment": "In vitro cytotoxicity assay in tumor lines (CellTiter-Glo 2.0), C4-2/STEAP2 KO", "type": "cell-based, human", "procedure": "The last well in each dilution series (untreated wells) served as blank controls containing only the media (ADCs) or media plus 0.2% DMSO (payloads) and was plotted as a continuation of the 3-fold serial dilution. […] Relative light units (RLUs) were measured on an Envision luminometer (PerkinElmer), and cell viability was expressed as a percentage of the untreated (100% viable) cells. IC50 values were determined using a four-parameter logistic equation over a 10-point dose response curve (GraphPad Prism)."}, "NCI-H1975 cells": {"system": "NCI-H1975 cells", "experiment": "In vitro cytotoxicity assay in tumor lines (CellTiter-Glo 2.0), NCI-H1975", "type": "cell-based, human", "settings": "six days; for IC50: concentrations corrected for DAR", "procedure": "as §1, §2"}, "HCT-15": {"system": "HCT-15", "experiment": "cells", "type": "cell-based"}, "[2]": {"settings": "Homo sapiens, HCT-15, read-out: IC50 (nM) +v"}, "[3]": {"settings": "Homo sapiens, HCT-15, read-out: IC50 (nM) −v"}}, "note": "Where two headings read alike, the source gives them in different places. Non-standard residues stand in square brackets, D forms with d. Residues, ends and D or L forms follow the SMILES beside them. *: point of attachment. Dolaproine = CO[C@@H]([C@@H]1CCCN1)[C@@H](C)C(=O)O; Dil = CC[C@H](C)[C@H](NC)[C@@H](CC(=O)O)OC; X1 = C[C@@H](N*)[C@@H](O)c1ccccc1; NMeV = CN[C@H](C(=O)O)C(C)C", "data": [{"molecule": "CC[C@@]1(O)C(=O)OCc2c1cc1n(c2=O)Cc2c-1nc1cc(F)c(C)c3c1c2[C@@H](NC(=O)CO)CC3", "note": "[Dxd]", "values": [{"measurement": "IC50", "setting": "[1]", "result": "787 to 11800", "unit": "pM"}, {"measurement": "IC50", "setting": "C4-2 cells; C4-2 cells, 6 days", "result": 2.54, "unit": "nM"}, {"measurement": "maximum % kill", "setting": "C4-2 cells; C4-2 cells, 6 days", "result": 81.7, "unit": "%"}, {"measurement": "C4-2 Max % Kill", "setting": "C4-2 cells; Table 28, six days", "result": 81.7, "unit": "%"}, {"measurement": "SK-BR-3 Max % Kill", "setting": "SK-BR-3 cells; Table 26 (first experiment)", "result": 97.1, "unit": "%"}, {"measurement": "IC50", "setting": "SK-BR-3 cells; Table 26 (first experiment)", "result": 0.787, "unit": "nM"}, {"measurement": "SK-BR-3 Max % Kill", "setting": "SK-BR-3 cells; Table 27 (second experiment)", "result": 98.2, "unit": "%"}, {"measurement": "IC50", "setting": "SK-BR-3 cells; Table 27 (second experiment)", "result": 1.56, "unit": "nM"}, {"measurement": "Calu-3 Max % Kill", "setting": "Calu-3 cells", "result": 96.3, "unit": "%"}, {"measurement": "IC50", "setting": "Calu-3 cells; concentrations corrected for DAR", "result": 2.14, "unit": "nM"}, {"measurement": "IC50", "setting": "C4-2/STEAP2 KO cells; C4-2/STEAP2 KO cells, 6 days", "result": 3.43, "unit": "nM"}, {"measurement": "C4-2/STEAP2 KO Max % Kill", "setting": "C4-2/STEAP2 KO cells; Table 28, six days", "result": 88.9, "unit": "%"}, {"measurement": "NCI-H1975 Max % Kill", "setting": "NCI-H1975 cells; Table 26 (first experiment)", "result": 95.9, "unit": "%"}, {"measurement": "IC50", "setting": "NCI-H1975 cells; Table 26 (first experiment)", "result": 8.91, "unit": "nM"}, {"measurement": "NCI-H1975 Max % Kill", "setting": "NCI-H1975 cells; Table 27 (second experiment)", "result": 96.1, "unit": "%"}, {"measurement": "IC50", "setting": "NCI-H1975 cells; Table 27 (second experiment)", "result": 11.8, "unit": "nM"}]}, {"molecule": "CC[C@H](C)[C@@H]([C@@H](CC(=O)N1CCC[C@H]1[C@H](OC)[C@@H](C)C(=O)N[C@H](C)[C@@H](O)c1ccccc1)OC)N(C)C(=O)[C@@H](NC(=O)[C@@H](NC)C(C)C)C(C)C", "note": "[MMAE] (H-[NMeV]V[Dil][Dolaproine]-X1)", "values": [{"measurement": "Ratio to MMAE +v", "setting": "HCT-15; HCT-15, with verapamil", "result": 1, "unit": "x"}, {"measurement": "IC50", "setting": "HCT-15; HCT-15, with verapamil, read-out: IC50 (nM) +v", "result": 0.946, "unit": "nM"}, {"measurement": "Ratio to MMAE −v", "setting": "HCT-15; HCT-15, without verapamil", "result": 1, "unit": "x"}, {"measurement": "IC50", "setting": "HCT-15; HCT-15, without verapamil, read-out: IC50 (nM) −v", "result": 14.8, "unit": "nM"}]}, {"molecule": "CC[C@@]1(O)C(=O)OCc2c1cc1n(c2=O)Cc2c-1nc1cc(F)c(C)c3c1c2[C@@H](N)CC3", "note": "[P1, Exatecan]", "values": [{"measurement": "Ratio to MMAE +v", "setting": "HCT-15; HCT-15, with verapamil", "result": 1.833, "unit": "x"}, {"measurement": "Ratio to MMAE −v", "setting": "HCT-15; HCT-15, without verapamil", "result": 0.087, "unit": "x"}, {"measurement": "IC50", "setting": "HCT-15; Homo sapiens, HCT-15, with verapamil, read-out: IC50 (nM) +v", "result": 1.73, "unit": "nM"}, {"measurement": "IC50", "setting": "HCT-15; Homo sapiens, HCT-15, without verapamil, read-out: IC50 (nM) −v", "result": 1.29, "unit": "nM"}]}, {"molecule": "CC[C@@]1(O)C(=O)OCc2c1cc1n(c2=O)Cc2c-1nc1cc(F)c(C)c3c1c2[C@@H](NC(=O)CO)CC3", "note": "[P2, Dxd]", "values": [{"measurement": "IC50", "setting": "HCT-15; [2]", "result": 2.65, "unit": "nM"}, {"measurement": "IC50", "setting": "HCT-15; [3]", "result": 7, "unit": "nM"}]}, {"molecule": "CC[C@@]1(O)C(=O)OCc2c1cc1n(c2=O)Cc2c-1nc1cc(F)c(C)c3c1c2[C@@H](NC(=O)COCNC(=O)CN)CC3", "note": "[P3]", "values": [{"measurement": "Ratio to MMAE +v", "setting": "HCT-15; HCT-15, with verapamil", "result": 23.426, "unit": "x"}, {"measurement": "Ratio to MMAE −v", "setting": "HCT-15; HCT-15, without verapamil", "result": 3.011, "unit": "x"}, {"measurement": "IC50", "setting": "HCT-15; [2]", "result": 22.2, "unit": "nM"}, {"measurement": "IC50", "setting": "HCT-15; [3]", "result": 44.9, "unit": "nM"}]}]}
